Data as given in patent US20050090454A1, “Combination of dehydroepiandrosterone or dehydroepiandrosterone-sulfate with an antihistamine for treatment of asthma or chronic obstructive pulmonary disease” (priority 2003, published 2005).
“And” between values parts separate entries of the source, which are not always exact repeats. Equal entries are not always repeated.

Assays:
[1] = system: Intracellular adenosine in rat heart, liver, lung and brain; assay: In vivo effect on adenosine levels in rat tissues
Excerpt: Hearts were removed from animals and flash frozen in liquid nitrogen with 10 s of death. Liver and lungs were removed en bloc and flash frozen with 30 s of death. Brain tissue was subsequently dissected.

HT-29 SF cells [2] = assay: Reversal of DHEA effect on cell cycle; format: cell-based, human; conditions: supplement with 25 μM DHEA
HT-29 SF cells [3] = assay: DHEA effect on cell growth (Coulter counter); conditions: 12.5-200 μM, 24-72 hours
Method: Cell cultures, HT-29 SF cells, which represent a subline of HY-29 cells (ATCC, Rockville, Md.) and are adapted for growth in completely defined serum-free PC-1 medium (Ventrex, Portland, Me.), were obtained. Stock cultures were maintained in this medium at 37° C. (in a humidified atmosphere containing 5% CO2).

HT-29 SF cells [4] = assay: DHEA effect on cell cycle distribution (flow cytometry); format: cell-based, human; conditions: 25, 50 or 200 μM, 24-72 hours, time- and dose-dependent
Method: Cultures were trypsinized following 0, 24, 48, or 74 hours and fixed and stained using a modification of a procedure of Bauer et al., Cancer Res. 46, 3173-3178 (1986). Briefly, cells were collected by centrifugation and resuspended in cold phosphate-buffered saline. Cells were fixed in 70% ethanol, washed, and resuspended in phosphate-buffered saline.
After 24, 48, and 72 hours, cells were harvested, fixed in ethanol, and stained with propidium iodide, and the DNA content/cell was determined by flow cytometric analysis. The percentage of cells in G1, S, and G2M phases was calculated using the Cellfit cell cycle analysis program. S phase is marked by a quadrangle for clarity. Representative histograms from duplicate determinations are shown. The experiment was repeated three times.

[5] = Solubility of DHEA-S as a function of NaCl and temperature; format: physicochemical; conditions: for Equilibrium constant Ksp=[DHEA-S−][Na+]: slope of solubility vs reciprocal sodium concentration
Excerpt: Inhalation of pure water can produce a cough stimulus. […] The temperature effect is weaker at high NaCl concentrations.

[6] = system: rat peritoneal mast cells; assay: Histamine secretion after stimulation with compound 48/80; format: cell-based
Method: Freshly isolated rat peritoneal mast cells (2×10^5 cells) were pre-incubated for 5 min at 37° C. in a Balanced Salt Solution containing 150 mM NaCl ([…]), 2.7 mM KCl, 0.9 mM CaCl2, 4 mM Na2HPO4, 2.7 mM KH2PO4, 1.75 mg/ml BSA and 0.1 μg/ml compound 48/80. Thereafter, DHEAS or water (control) are added and the mixture is incubated for 2 min at 37° C.
Following incubation, the mixture is cooled to 4° C. then centrifuged at 4500 rpm for 5 min The supernatant is collected and mixed for 30 min at 4° C. with 5% TCA (trichloroacetic acid) to cause protein precipitation. After centrifugation at 9500×g for 15 min, the supernatant is collected and mixed with 0.25 M HCl. Thereafter, the samples are mixed with 2M NaOH and 0.2% OPT (ortho-phtalaldehyde) and incubated for 30 min at 4° C. in darkness, after which time the reaction is stopped by addition of 0.5 M H2SO4.

[7] = HPLC check of drug degradation during jet milling; format: physicochemical; conditions: HPLC peak area vs unmilled standard, single- and double-pass
Method: The chromatographic peak area for the HPLC assay of the unmilled drug standard solution (10 mg/ml) gave a value of 23,427. […] The chromatographic peak areas for vials A and B were 11,979 and 11,677, respectively.

With `Nc1nc(=O)c2c([nH]1)NCC(CNc1ccc(C(=O)N[C@@H](CCC(=O)O)C(=O)O)cc1)N2C=O` (mixture of isomers) [Folinic Acid, Folinic acid] the “Effect on steroid-mediated adenosine depletion” value ([1]; coadministration with DHEA or methyltestosterone) was “completely abrogated steroid-mediated adenosine depletion” and the “Effect on adenosine levels” value ([1]; rat, in vivo) was “increase in adenosine levels for all organs studied”.

With `CC(C)CCC[C@@H](C)[C@H]1CC[C@H]2[C@@H]3CC=C4C[C@@H](O)CC[C@]4(C)[C@H]3CC[C@]12C` [CH, cholesterol] the “Prevention of DHEA-induced reduction of cells in S phase” value (HT-29 SF cells [2]; 48 hours) was “very little effect” and the “Prevention of DHEA-induced reduction of cells in S phase” value (HT-29 SF cells [2]; 72 hours) was “no effect”.

For `C[C@]12CC[C@H](O)CC1=CC[C@@H]1[C@@H]2CC[C@]2(C)C(=O)CC[C@@H]12` [DHEA, 3β-hydroxyandrost-5-en-17-one], the “Effect on cell growth” value (HT-29 SF cells [3]) was “time- and dose-dependent inhibition of growth” and the “Effect on cell cycle” value (HT-29 SF cells [4]) was “G1 block”.

For `C[C@]12CC[C@H](OS(=O)(=O)[O-])CC1=CC[C@@H]1[C@@H]2CC[C@]2(C)C(=O)CC[C@@H]12.[Na+]` [DHEA-S, sodium dehydroepiandrostenone sulfate], the “Estimated DHEA-S concentration in solution” value ([5]; 15° C., 20 mM Na+, Ksp 1316 mM^2, quadratic formula) was 27.5 mM and 10.7 mg/mL, the “Ksp at 15° C.” value ([5]; interpolated versus reciprocal of absolute temperature) was roughly 1316 mM^2 and the “Equilibrium constant Ksp=[DHEA-S−][Na+]” value ([5]; refrigerated (7-8° C.)) was 665 mM2. The “Equilibrium constant Ksp=[DHEA-S−][Na+]” value ([5]; room temperature (24-25° C.)) was 2236 mM2, the “Solubility under the assay conditions” value ([6]; at 10^-4 M) was “highly limited” and the EC50 ([6]; compound 48/80 0.1 μg/ml, 2 min at 37° C., read-out: EC50, inhibition of histamine release) was 170 nM. The “Degradation of the drug during jet milling micronization” value [7] was “no detectable degradation”.

In the case of `C[C@@](O)(CCO)CC(=O)O` [MVA, mevalonic acid], the “Prevention of DHEA-induced reduction of cells in S phase” value (HT-29 SF cells [2]; 48 hours) is reported as “partially prevented” and the “Prevention of DHEA-induced reduction of cells in S phase” value (HT-29 SF cells [2]; 72 hours) is reported as “not after 72 hours”.
